9 compounds from PubChem BioAssay (NCI) can be followed below.

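Following 48 hours of exposure in 96-well plates, responses at five concentrations were used to interpolate endpoints linearly. GI50: concentration for 50% inhibition of growth. TGI marks complete inhibition of growth.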 Where only a bound is given, the exact number is not on record here.

Test systems include 786-0 renal; ACHN renal; CAKI-1 renal; EKVX NSCLC; K-562 leukemia; KM12 colon; M14 melanoma; MCF7 breast; PC-3 prostate; SK-MEL-5 melanoma.
Common to all, as to test: NCI-60 cell line screen, 48 h

In the case of `O=C(NNc1ccccc1)c1ccc(Cl)c(Cl)c1`, the TGI was greater than 100 µM in the assay with 786-0 renal; greater than 100 µM with ACHN renal; greater than 59.5 µM in the assay with CAKI-1 renal; 99.4 µM with EKVX NSCLC; greater than 100 µM in the assay with K-562 leukemia; greater than 75.9 µM in the assay with KM12 colon. The TGI in the assay on M14 melanoma was greater than 100 µM; in the assay on MCF7 breast it was greater than 100 µM; with PC-3 prostate, greater than 100 µM; in the assay with SK-MEL-5 melanoma, 41.6 µM.

As to `Cc1c(Cl)cccc1NC(=O)c1sc2nc3c(cc2c1N)C(=O)CCC3`, the GI50 was 0.0917 µM in the assay with 786-0 renal; 0.0825 µM in the assay with ACHN renal; 0.0461 µM in the assay with CAKI-1 renal; 0.0371 µM in the assay with K-562 leukemia; 0.0658 µM in the assay with KM12 colon; 0.0655 µM with M14 melanoma. Further, the GI50 with MCF7 breast is 0.0452 µM; in the assay on PC-3 prostate, 0.0517 µM; with SK-MEL-5 melanoma, 0.13 µM. In addition, the TGI in the assay on 786-0 renal was greater than 59.4 µM; with ACHN renal, greater than 61.5 µM; in the assay on CAKI-1 renal it was greater than 100 µM; in the assay on K-562 leukemia, greater than 100 µM; in the assay with KM12 colon it was greater than 100 µM; in the assay on MCF7 breast, greater than 100 µM. For the same compound, the TGI in the assay with PC-3 prostate is greater than 52.2 µM; in the assay on SK-MEL-5 melanoma, 2.78 µM.

Take `NC(Cc1cccnn1)C(=O)O` (stereo not drawn): the TGI with 786-0 renal, with ACHN renal, with CAKI-1 renal, in the assay with EKVX NSCLC, in the assay with K-562 leukemia and with KM12 colon was greater than 100 µM each time. Besides, the TGI with M14 melanoma, in the assay with MCF7 breast, in the assay with PC-3 prostate and in the assay with SK-MEL-5 melanoma was greater than 100 µM in each case.

As for `O=C1c2ccn(CCCNC(CO)(CO)CO)c2C(=O)c2c1c(O)c1ccccc1c2O`, the GI50 in the assay with 786-0 renal was 7.94 µM; in the assay on ACHN renal it was 13.6 µM; with CAKI-1 renal, 16.4 µM; with EKVX NSCLC it was 49.7 µM; with K-562 leukemia it was 9.36 µM; in the assay with KM12 colon, 11.1 µM. Moreover, the GI50 in the assay with M14 melanoma was 14.1 µM; with MCF7 breast it was 13 µM; in the assay on PC-3 prostate, 14.6 µM. The TGI in the assay on 786-0 renal is 26.9 µM; with ACHN renal, 28.2 µM; in the assay on CAKI-1 renal, 47.1 µM; in the assay on EKVX NSCLC it was greater than 100 µM; with K-562 leukemia, 90.1 µM; in the assay on KM12 colon, 25.7 µM. Also, the TGI stood at 30.1 µM in the assay on M14 melanoma, 33 µM in the assay on MCF7 breast, 35.8 µM with PC-3 prostate and 0.588 µM in the assay with SK-MEL-5 melanoma.

For `O=C(NCCCl)Nc1ccccc1`, the TGI in the assay on 786-0 renal, in the assay with ACHN renal, with CAKI-1 renal, with EKVX NSCLC, in the assay on K-562 leukemia and with KM12 colon was greater than 100 µM each time. The TGI in the assay on MCF7 breast, in the assay with PC-3 prostate and with SK-MEL-5 melanoma was greater than 100 µM throughout.

Take `COc1c(B(O)O)cccc1-c1nc2ccc3[nH]ncc3c2c2c1CCCC2`: the GI50 was 1.2 µM in the assay on 786-0 renal; 1.77 µM in the assay with ACHN renal; 0.0171 µM in the assay with CAKI-1 renal; 2.65 µM in the assay on EKVX NSCLC; 3.4 µM in the assay with K-562 leukemia; 2.25 µM in the assay with KM12 colon. Also, the GI50 in the assay with M14 melanoma was 4.06 µM; in the assay on MCF7 breast it was 2.04 µM; in the assay on PC-3 prostate it was 2.41 µM; with SK-MEL-5 melanoma it was 3.18 µM. Moreover, the TGI with 786-0 renal is 11.9 µM; with ACHN renal, 16.8 µM; in the assay with CAKI-1 renal, 0.252 µM; with EKVX NSCLC it was 15.9 µM; in the assay with K-562 leukemia, greater than 100 µM; in the assay on KM12 colon, 10.9 µM. The TGI in the assay on M14 melanoma came to 13.2 µM; in the assay with MCF7 breast, 13 µM; in the assay with PC-3 prostate, 40.6 µM; in the assay on SK-MEL-5 melanoma it was 12.5 µM.

For `CSc1nnc(-c2cc3c([nH]c4ccccc43)c(-c3cccc(O)c3)n2)n1-c1ccc(C)cc1`, the GI50 in the assay with 786-0 renal is 4.61 µM; with ACHN renal it was 2.11 µM; in the assay on EKVX NSCLC, 4.51 µM; in the assay with K-562 leukemia it was 5.08 µM; in the assay with KM12 colon it was 3.86 µM; with M14 melanoma, 3.83 µM. Besides, the figures for the GI50 with MCF7 breast, in the assay with PC-3 prostate and in the assay with SK-MEL-5 melanoma were 2.5 µM, 3.58 µM and 2.38 µM, respectively. For the same compound, the TGI is 32.2 µM in the assay on 786-0 renal; 6.06 µM in the assay on ACHN renal; greater than 100 µM in the assay with EKVX NSCLC; greater than 100 µM with K-562 leukemia; greater than 100 µM with KM12 colon; greater than 100 µM with M14 melanoma. The TGI in the assay with MCF7 breast is greater than 100 µM; in the assay with PC-3 prostate it was 23 µM; in the assay on SK-MEL-5 melanoma, 11.5 µM.

As to `C[C@@]1(C(=O)O)CCC[C@]2(C)C1CC[C@]13C[C@@](O)(CO)[C@](O)(CC[C@]12O)C3` (stereo partly drawn), the GI50 in the assay with 786-0 renal, in the assay on ACHN renal, in the assay on CAKI-1 renal, in the assay on EKVX NSCLC, in the assay on K-562 leukemia and with KM12 colon was greater than 100 µM each time. Moreover, the GI50 in the assay with M14 melanoma, with MCF7 breast, with PC-3 prostate and with SK-MEL-5 melanoma was greater than 100 µM in each case. In addition, the TGI in the assay on 786-0 renal, in the assay on ACHN renal, in the assay on CAKI-1 renal, in the assay with EKVX NSCLC, in the assay with K-562 leukemia and in the assay with KM12 colon was greater than 100 µM in each case. The TGI in the assay on M14 melanoma, in the assay with MCF7 breast, in the assay on PC-3 prostate and in the assay with SK-MEL-5 melanoma was greater than 100 µM each time.

In the case of `CCCCSc1nc(N)c2cn[nH]c2n1`, the GI50 with 786-0 renal is 21.2 µM; in the assay with ACHN renal it was 24.8 µM; in the assay on CAKI-1 renal it was 18.2 µM; in the assay with EKVX NSCLC it was 15.6 µM; with K-562 leukemia, 29.7 µM; in the assay on KM12 colon, 15 µM. Moreover, the GI50 with M14 melanoma is 13.3 µM; in the assay on MCF7 breast it was 23.4 µM; with PC-3 prostate, 17.9 µM; in the assay with SK-MEL-5 melanoma it was 15.5 µM. Besides, the TGI was 57.3 µM with 786-0 renal; greater than 76.1 µM in the assay on ACHN renal; 44.4 µM in the assay on CAKI-1 renal; 57.3 µM in the assay on EKVX NSCLC; greater than 100 µM in the assay with K-562 leukemia; 30.4 µM with KM12 colon. In addition, the TGI was 29.5 µM with M14 melanoma, greater than 62.5 µM in the assay with MCF7 breast, 41.8 µM with PC-3 prostate and 33.2 µM in the assay on SK-MEL-5 melanoma.
